Laboratory results published in patent publication US20240109865A1, “INDAZOLE COMPOUNDS AS KINASE INHIBITORS” (TYRA BIOSCIENCES, INC., priority 2020, published 2024).

What was measured:
Test in all cases: Kinase assay, binding constants (Kd), kinase-tagged T7 phage, qPCR
FGFR2 = FGFR2 (Homo sapiens (Human), UniProt P21802)
Summary of the method: (§1)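 Using T7 phage lysates from BL21-derived E. coli, compounds at 0.9% final DMSO competed for kinase binding to ligand-bearing magnetic beads. After elution, qPCR measured remaining kinase, and Kds were fitted by non-linear least squares with the Hill slope fixed at −1.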

FGFR3 = FGFR3 (Homo sapiens (Human), UniProt P22607)
Summary of the method: as §1

FGFR3 (V555M) = FGFR3 (V555M) (Homo sapiens (Human), UniProt P22607, V555M); conditions: V555M mutant
Summary of the method: as §1

FGFR4 = FGFR4 (Homo sapiens (Human), UniProt P22455)
Summary of the method: as §1

FGFR1 = FGFR1 (Homo sapiens (Human), UniProt P11362)
Summary of the method: as §1

Sequence of FGFR4 (P22455 22-802): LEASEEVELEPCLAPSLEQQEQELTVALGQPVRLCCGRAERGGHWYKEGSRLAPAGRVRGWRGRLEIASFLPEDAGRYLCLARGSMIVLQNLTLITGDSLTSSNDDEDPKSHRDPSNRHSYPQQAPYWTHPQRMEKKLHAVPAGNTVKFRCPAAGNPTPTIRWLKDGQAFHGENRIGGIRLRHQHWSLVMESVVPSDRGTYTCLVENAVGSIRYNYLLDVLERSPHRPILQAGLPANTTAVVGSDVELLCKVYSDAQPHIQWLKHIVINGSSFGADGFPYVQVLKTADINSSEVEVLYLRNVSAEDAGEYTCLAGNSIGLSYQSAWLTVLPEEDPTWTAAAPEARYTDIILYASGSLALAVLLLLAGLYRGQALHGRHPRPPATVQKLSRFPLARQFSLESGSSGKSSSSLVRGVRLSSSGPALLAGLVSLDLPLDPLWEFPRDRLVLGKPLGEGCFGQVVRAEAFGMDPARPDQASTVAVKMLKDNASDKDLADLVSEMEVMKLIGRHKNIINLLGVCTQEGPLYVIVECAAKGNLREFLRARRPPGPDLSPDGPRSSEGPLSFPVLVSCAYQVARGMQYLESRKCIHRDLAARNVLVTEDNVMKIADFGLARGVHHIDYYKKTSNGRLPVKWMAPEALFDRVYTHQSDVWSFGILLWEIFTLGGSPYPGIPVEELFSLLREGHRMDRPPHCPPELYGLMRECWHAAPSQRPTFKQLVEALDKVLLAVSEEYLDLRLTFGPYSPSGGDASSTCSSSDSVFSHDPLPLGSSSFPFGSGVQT
Sequence of FGFR1 (P11362 22-822): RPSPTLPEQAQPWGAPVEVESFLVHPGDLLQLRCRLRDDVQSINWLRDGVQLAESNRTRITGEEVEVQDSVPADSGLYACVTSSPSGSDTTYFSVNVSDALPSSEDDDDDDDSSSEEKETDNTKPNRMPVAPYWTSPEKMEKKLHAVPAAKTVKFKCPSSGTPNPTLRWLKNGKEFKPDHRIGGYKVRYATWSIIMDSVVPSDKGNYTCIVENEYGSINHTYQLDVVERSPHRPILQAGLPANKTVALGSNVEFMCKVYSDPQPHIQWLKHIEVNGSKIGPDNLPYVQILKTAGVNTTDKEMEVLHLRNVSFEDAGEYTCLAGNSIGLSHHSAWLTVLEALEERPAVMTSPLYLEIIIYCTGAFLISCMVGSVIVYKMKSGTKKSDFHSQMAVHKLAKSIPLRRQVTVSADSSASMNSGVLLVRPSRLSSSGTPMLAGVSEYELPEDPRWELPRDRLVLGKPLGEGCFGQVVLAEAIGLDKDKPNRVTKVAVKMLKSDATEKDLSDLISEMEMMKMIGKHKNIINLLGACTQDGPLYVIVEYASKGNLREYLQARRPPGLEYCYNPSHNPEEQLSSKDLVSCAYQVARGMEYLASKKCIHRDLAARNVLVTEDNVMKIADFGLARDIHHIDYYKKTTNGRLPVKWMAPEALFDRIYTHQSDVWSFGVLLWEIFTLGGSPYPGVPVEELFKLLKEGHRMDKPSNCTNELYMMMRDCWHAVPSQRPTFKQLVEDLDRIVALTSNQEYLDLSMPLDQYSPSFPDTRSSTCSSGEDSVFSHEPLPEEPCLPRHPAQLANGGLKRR
Sequence of FGFR2 (P21802 22-821): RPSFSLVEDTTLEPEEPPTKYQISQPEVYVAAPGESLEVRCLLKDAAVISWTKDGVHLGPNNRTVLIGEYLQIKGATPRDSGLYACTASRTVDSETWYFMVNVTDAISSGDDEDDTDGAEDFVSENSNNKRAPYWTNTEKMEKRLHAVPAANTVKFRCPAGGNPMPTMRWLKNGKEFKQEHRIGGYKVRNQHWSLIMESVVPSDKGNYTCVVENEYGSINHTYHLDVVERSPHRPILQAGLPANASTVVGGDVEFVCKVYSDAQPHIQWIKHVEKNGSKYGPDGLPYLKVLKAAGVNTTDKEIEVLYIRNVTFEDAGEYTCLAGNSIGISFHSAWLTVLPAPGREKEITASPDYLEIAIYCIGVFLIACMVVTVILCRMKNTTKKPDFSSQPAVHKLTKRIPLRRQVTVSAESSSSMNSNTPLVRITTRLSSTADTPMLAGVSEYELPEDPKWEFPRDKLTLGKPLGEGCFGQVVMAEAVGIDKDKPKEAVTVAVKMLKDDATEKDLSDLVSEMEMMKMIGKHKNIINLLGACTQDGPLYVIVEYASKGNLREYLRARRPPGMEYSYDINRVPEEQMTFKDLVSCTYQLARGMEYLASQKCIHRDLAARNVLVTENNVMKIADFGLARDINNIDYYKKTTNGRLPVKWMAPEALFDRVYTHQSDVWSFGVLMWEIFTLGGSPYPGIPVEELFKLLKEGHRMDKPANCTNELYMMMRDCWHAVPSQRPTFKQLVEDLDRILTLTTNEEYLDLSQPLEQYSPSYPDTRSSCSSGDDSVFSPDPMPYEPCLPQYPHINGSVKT
Sequence of FGFR3 (P22607 23-806): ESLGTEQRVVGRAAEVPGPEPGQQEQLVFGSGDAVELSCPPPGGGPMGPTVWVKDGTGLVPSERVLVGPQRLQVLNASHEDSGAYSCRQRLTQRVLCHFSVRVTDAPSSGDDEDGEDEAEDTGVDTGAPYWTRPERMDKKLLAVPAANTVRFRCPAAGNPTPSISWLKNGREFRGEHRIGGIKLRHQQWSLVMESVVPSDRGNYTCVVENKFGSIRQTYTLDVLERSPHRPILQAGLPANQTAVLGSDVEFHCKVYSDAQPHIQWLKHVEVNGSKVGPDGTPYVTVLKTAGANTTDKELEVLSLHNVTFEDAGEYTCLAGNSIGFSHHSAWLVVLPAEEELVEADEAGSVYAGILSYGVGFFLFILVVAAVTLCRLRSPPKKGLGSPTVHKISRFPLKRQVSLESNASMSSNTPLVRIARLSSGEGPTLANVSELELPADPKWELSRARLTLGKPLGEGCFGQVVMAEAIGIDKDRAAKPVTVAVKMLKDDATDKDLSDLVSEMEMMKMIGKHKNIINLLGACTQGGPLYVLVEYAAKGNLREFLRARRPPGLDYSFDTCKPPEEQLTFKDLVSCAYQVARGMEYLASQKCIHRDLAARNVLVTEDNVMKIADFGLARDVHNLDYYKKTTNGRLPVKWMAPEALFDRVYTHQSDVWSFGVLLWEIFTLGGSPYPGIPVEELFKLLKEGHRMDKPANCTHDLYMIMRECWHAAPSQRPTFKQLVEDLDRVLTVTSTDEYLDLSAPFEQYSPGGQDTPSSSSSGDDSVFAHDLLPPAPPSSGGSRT
Sequence of FGFR3 (V555M) (P22607 23-806 V555M): as the sequence (P22607 23-806) above, with V533M counted along it

| Structure (SMILES) | Kd (FGFR2) | Kd (FGFR3) | Kd (FGFR3 (V555M)) | Kd (FGFR4) | Kd (FGFR1) |
| --- | --- | --- | --- | --- | --- |
| Cc1cnnc(C)c1[C@@H](C)Oc1ccc2[nH]nc(-c3cnc(N4CC5CC(C4)N5)c(C#N)c3)c2c1 [Example 299, 2-(3,6-diazabicyclo[3.1.1]heptan-3-yl)-5-(5-((R)-1-(3,5-dimethylpyridazin-4-yl)ethoxy)-1H-indazol-3-yl)nicotinonitrile] | 20 to 100 nM | 1 to 20 nM | 1 to 20 nM | 1 to 20 nM | 20 to 100 nM |
| COc1cc(-c2n[nH]c3ccc(O[C@H](C)c4c(C)cnnc4C)cc23)cnc1N1CC2CC(C1)N2 [Example 300, 3-(5-(5-((R)-1-(3,5-dimethylpyridazin-4-yl)ethoxy)-1H-indazol-3-yl)-3-methoxypyridin-2-yl)-3,6-diazabicyclo[3.1.1]heptane] | 100 to 300 nM | 20 to 100 nM | 20 to 100 nM | 20 to 100 nM | 100 to 300 nM |
| C[C@@H](Oc1ccc2[nH]nc(-c3cnc(N4CCC(C(C)(C)O)CC4)c(C#N)c3)c2c1)c1c(Cl)cncc1Cl [Example 303, 5-[5-[(1R)-1-(3,5-dichloro-4-pyridyl)ethoxy]-1H-indazol-3-yl]-2-[4-(1-hydroxy-1-methyl-ethyl)-1-piperidyl]pyridine-3-carbonitrile] | 20 to 100 nM | 1 to 20 nM | 1 to 20 nM | 1 to 20 nM | 20 to 100 nM |
| COc1cc(-c2n[nH]c3ccc(O[C@H](C)c4c(C)cnnc4C)cc23)cnc1N1CCC1 [Example 304, (R)-3-(6-(azetidin-1-yl)-5-methoxypyridin-3-yl)-5-(1-(3,5-dimethylpyridazin-4-yl)ethoxy)-1H-indazole] | > 300 nM | 100 to 300 nM | 20 to 100 nM | 1 to 20 nM | > 300 nM |
| Cc1cnnc(C)c1[C@@H](C)Oc1ccc2[nH]nc(-c3cnc(N4CC[C@@H](C(C)(C)O)C4)c(C#N)c3)c2c1 [Example 307, 5-(5-((R)-1-(3,5-dimethylpyridazin-4-yl)ethoxy)-1H-indazol-3-yl)-2-((R)-3-(2-hydroxypropan-2-yl)pyrrolidin-1-yl)nicotinonitrile] | 20 to 100 nM | 20 to 100 nM | 1 to 20 nM | 1 to 20 nM | 100 to 300 nM |
| Cc1ncc(Cl)c([C@@H](C)Oc2ccc3[nH]nc(-c4cnc(N5CC(O)C5)c(C#N)c4)c3c2)c1Cl [Example 308, 5-[5-[(1R)-1-(3,5-dichloro-2-methyl-4-pyridyl)ethoxy]-1H-indazol-3-yl]-2-(3-hydroxyazetidin-1-yl)pyridine-3-carbonitrile] | > 300 nM | 100 to 300 nM | 20 to 100 nM | 1 to 20 nM | > 300 nM |
| C[C@@H](Oc1ccc2[nH]nc(-c3cnc(N4CCC4)c(C#N)c3)c2c1)c1c(Cl)cncc1Cl [Example 309, 2-(azetidin-1-yl)-5-[5-[(1R)-1-(3,5-dichloro-4-pyridyl)ethoxy]-1H-indazol-3-yl]pyridine-3-carbonitrile] | > 300 nM | 100 to 300 nM | 20 to 100 nM | 1 to 20 nM | > 300 nM |
| Cc1cnnc(C)c1[C@@H](C)Oc1ccc2[nH]nc(-c3cnc(N4CC5CC(C4)N5CC(C)(C)O)c(C#N)c3)c2c1 [Example 312, 5-(5-((R)-1-(3,5-dimethylpyridazin-4-yl)ethoxy)-1H-indazol-3-yl)-2-(6-(2-hydroxy-2-methylpropyl)-3,6-diazabicyclo[3.1.1]heptan-3-yl)nicotinonitrile] | 1 to 20 nM | 1 to 20 nM | 1 to 20 nM | 1 to 20 nM | 1 to 20 nM |
| COc1cc2[nH]nc(-c3ccc(N4CC5CC(C4)N5)nc3)c2cc1O[C@H](C)c1c(C)cnnc1C [Example 314, 3-(5-(5-((R)-1-(3,5-dimethylpyridazin-4-yl)ethoxy)-6-methoxy-1H-indazol-3-yl)pyridin-2-yl)-3,6-diazabicyclo[3.1.1]heptane] | 1 to 20 nM | 1 to 20 nM | 1 to 20 nM | 1 to 20 nM | 1 to 20 nM |
| COc1cc2[nH]nc(-c3ccc(N4CCCC4)nc3)c2cc1O[C@H](C)c1c(C)cnnc1C [Example 315, (R)-5-(1-(3,5-dimethylpyridazin-4-yl)ethoxy)-6-methoxy-3-(6-(pyrrolidin-1-yl)pyridin-3-yl)-1H-indazole] | 1 to 20 nM | 1 to 20 nM | 1 to 20 nM | 1 to 20 nM | 1 to 20 nM |
| COc1cc2[nH]nc(-c3cnc(N4CC5CC(C4)N5)c(C)c3)c2cc1O[C@H](C)c1c(C)cnnc1C [Example 317, 3-(5-(5-((R)-1-(3,5-dimethylpyridazin-4-yl)ethoxy)-6-methoxy-1H-indazol-3-yl)-3-methylpyridin-2-yl)-3,6-diazabicyclo[3.1.1]heptane] | 1 to 20 nM | 1 to 20 nM | 1 to 20 nM | 1 to 20 nM | 1 to 20 nM |
| Cc1cnnc(C)c1[C@@H](C)Oc1ccc2[nH]nc(-c3cnc(N4CC(O)C4)c(C#N)c3)c2c1 [Example 318, (R)-5-(5-(1-(3,5-dimethylpyridazin-4-yl)ethoxy)-1H-indazol-3-yl)-2-(3-hydroxyazetidin-1-yl)nicotinonitrile] | 100 to 300 nM | 20 to 100 nM | 1 to 20 nM | 1 to 20 nM | 100 to 300 nM |
| COc1cc2[nH]nc(-c3cnc(N4CC[C@@H](O)C4)c(C#N)c3)c2cc1O[C@H](C)c1c(C)cnnc1C [Example 319, 5-(5-((R)-1-(3,5-dimethylpyridazin-4-yl)ethoxy)-6-methoxy-1H-indazol-3-yl)-2-((R)-3-hydroxypyrrolidin-1-yl)nicotinonitrile] | 20 to 100 nM | 1 to 20 nM | 1 to 20 nM | 1 to 20 nM | 20 to 100 nM |
| COc1cc2[nH]nc(-c3cnc(N4CC(O)C4)c(C#N)c3)c2cc1O[C@H](C)c1c(C)cnnc1C [Example 320, (R)-5-(5-(1-(3,5-dimethylpyridazin-4-yl)ethoxy)-6-methoxy-1H-indazol-3-yl)-2-(3-hydroxyazetidin-1-yl)nicotinonitrile] | 20 to 100 nM | 20 to 100 nM | 1 to 20 nM | 1 to 20 nM | 20 to 100 nM |

The remaining lines, values ahead:

| Kd (FGFR2) | Kd (FGFR3) | Kd (FGFR3 (V555M)) | Kd (FGFR4) | Kd (FGFR1) | Structure (SMILES) |
| --- | --- | --- | --- | --- | --- |
| 100 to 300 nM | 20 to 100 nM | 1 to 20 nM | 1 to 20 nM | 100 to 300 nM | Cc1cnnc(C)c1[C@@H](C)Oc1ccc2[nH]nc(-c3cnc(N4CC[C@H](C(C)(C)O)C4)c(C#N)c3)c2c1 [Example 301, 5-(5-((R)-1-(3,5-dimethylpyridazin-4-yl)ethoxy)-1H-indazol-3-yl)-2-((S)-3-(2-hydroxypropan-2-yl)pyrrolidin-1-yl)nicotinonitrile] |
| 100 to 300 nM | 20 to 100 nM | 1 to 20 nM | 1 to 20 nM | 100 to 300 nM | C[C@@H](Oc1ccc2[nH]nc(-c3cnc(N4CC(O)C4)c(C#N)c3)c2c1)c1c(Cl)cncc1Cl [Example 302, 5-[5-[(1R)-1-(3,5-dichloro-4-pyridyl)ethoxy]-1H-indazol-3-yl]-2-(3-hydroxyazetidin-1-yl)pyridine-3-carbonitrile] |
| > 300 nM | > 300 nM | 100 to 300 nM | 20 to 100 nM | > 300 nM | COc1cc(-c2n[nH]c3ccc(O[C@H](C)c4c(C)cnnc4C)cc23)cnc1N1CCCC1 [Example 305, (R)-5-(1-(3,5-dimethylpyridazin-4-yl)ethoxy)-3-(5-methoxy-6-(pyrrolidin-1-yl)pyridin-3-yl)-1H-indazole] |
| 20 to 100 nM | 20 to 100 nM | 1 to 20 nM | 1 to 20 nM | 100 to 300 nM | Cc1cnnc(C)c1[C@@H](C)Oc1ccc2[nH]nc(-c3cnc(N4CC[C@H](O)C4)c(C#N)c3)c2c1 [Example 306, 5-(5-((R)-1-(3,5-dimethylpyridazin-4-yl)ethoxy)-1H-indazol-3-yl)-2-((S)-3-hydroxypyrrolidin-1-yl)nicotinonitrile] |
| 1 to 20 nM | 1 to 20 nM | 1 to 20 nM | 1 to 20 nM | 1 to 20 nM | COc1cc2[nH]nc(-c3ccc(N4CCC4)nc3)c2cc1O[C@H](C)c1c(C)cnnc1C [Example 310, (R)-3-(6-(azetidin-1-yl)pyridin-3-yl)-5-(1-(3,5-dimethylpyridazin-4-yl)ethoxy)-6-methoxy-1H-indazole] |
| 20 to 100 nM | 20 to 100 nM | 1 to 20 nM | 1 to 20 nM | 20 to 100 nM | COc1cc2[nH]nc(-c3cnc(N4CC[C@H](O)C4)c(C#N)c3)c2cc1O[C@H](C)c1c(C)cnnc1C [Example 311, 5-(5-((R)-1-(3,5-dimethylpyridazin-4-yl)ethoxy)-6-methoxy-1H-indazol-3-yl)-2-((S)-3-hydroxypyrrolidin-1-yl)nicotinonitrile] |
| 20 to 100 nM | 20 to 100 nM | 1 to 20 nM | 1 to 20 nM | 100 to 300 nM | Cc1cnnc(C)c1[C@@H](C)Oc1ccc2[nH]nc(-c3cnc(N4CC[C@@H](O)C4)c(C#N)c3)c2c1 [Example 313, 5-(5-((R)-1-(3,5-dimethylpyridazin-4-yl)ethoxy)-1H-indazol-3-yl)-2-((R)-3-hydroxypyrrolidin-1-yl)nicotinonitrile] |
| 20 to 100 nM | 1 to 20 nM | 1 to 20 nM | 1 to 20 nM | 20 to 100 nM | COc1cc2[nH]nc(-c3cnc(N4CC[C@H](C(C)(C)O)C4)c(C#N)c3)c2cc1O[C@H](C)c1c(C)cnnc1C [Example 316, 5-(5-((R)-1-(3,5-dimethylpyridazin-4-yl)ethoxy)-6-methoxy-1H-indazol-3-yl)-2-((S)-3-(2-hydroxypropan-2-yl)pyrrolidin-1-yl)nicotinonitrile] |
